For the test, the target named is T1, Tyrosine-protein phosphatase non-receptor type 1 (Homo sapiens, UniProt P18031).
T1 sequence (P18031 whole entry): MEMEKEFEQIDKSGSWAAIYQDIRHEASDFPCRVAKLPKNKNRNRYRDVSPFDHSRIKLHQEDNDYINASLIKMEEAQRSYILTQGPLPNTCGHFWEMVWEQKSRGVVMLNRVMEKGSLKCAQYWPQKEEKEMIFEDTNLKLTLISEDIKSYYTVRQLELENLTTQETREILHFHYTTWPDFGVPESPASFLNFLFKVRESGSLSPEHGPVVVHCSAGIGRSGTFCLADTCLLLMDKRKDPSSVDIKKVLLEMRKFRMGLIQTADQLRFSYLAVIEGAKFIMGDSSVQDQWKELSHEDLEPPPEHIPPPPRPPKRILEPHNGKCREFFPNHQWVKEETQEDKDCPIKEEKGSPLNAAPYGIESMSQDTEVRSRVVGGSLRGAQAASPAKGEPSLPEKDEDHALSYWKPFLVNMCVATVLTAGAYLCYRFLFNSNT
Kind of test: Inhibition of protein tyrosine phosphatase 1B.

Usually IC50 stands for the concentration needed to halve the response being measured. Low readings indicate greater potency in that assay, high ones weaker potency in that assay. `Cc1cc(C)c(Oc2cc(Br)cc(Br)c2Br)c(Br)c1` had an IC50 of 5.78 µM. For `BrCc1cc(Br)c2cc(NBr)c(Br)c(Br)c2c1` the value was 185 µM; for `BrCc1cc(Br)c2cc(NBr)c(Br)cc2c1Br`, 118 µM. `BrCc1cc2cc(Br)c(NBr)cc2c(Br)c1Br`: inhibition was half-maximal at 127 µM (IC50). `COc1cc(C(=O)c2c(Br)c(Br)c(OC)c(OC)c2Br)c(Br)c(Br)c1OC` showed an IC50 of 3.82 µM.

For the origin of these results see ChEMBL document CHEMBL1287683, “Highly brominated metabolites from marine red alga Laurencia similis inhibit protein tyrosine phosphatase 1B” (Bioorg Med Chem Lett, 2010).
